Columns and labels:
MCF7 ERαY537S = assay: Inhibition of proliferation of MCF7 cell expressing ERα Y537S mutant; type: cell-based; conditions: Homo sapiens, 144 hours; for Emax: read-out: Maximum inhibition
In short: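 MCF7 cells stably expressing lentiviral ERα Y537S or D538G mutants, seeded 3,000 cells/well, then exposed in 2% FBS MEM to nine 4-fold dilutions from 100 nM for 144 h at 37° C. Viability read by CellTiter-Glo luminescence; IC50 fitted from concentration-response.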

[1] = biological target: estrogen receptor ERα wild-type (Homo sapiens (Human), UniProt P03372); assay: Covalent modification of ERα wild-type LBD by high-resolution mass spectrometry; type: binding; conditions: after 24 hours; 2 μM protein, 10 μM compound, 4° C.
Procedure: (§1) The ligand binding domain (LBD, aa296-554) of estrogen receptor ERα wild-type and ERα Y537S mutant-type was expressed in E. coli and purified. 2 μM ERα wild-type or ERα Y537S mutant-type protein and 10 μM compound were added to a buffer solution containing 50 mM Tris-HCl, pH7.5, 150 mM NaCl, 1 mM TCEP and 5% glycerol and mixed well. The solution was incubated at 4° C. for 24 hours, followed by high-resolution mass spectrometry (Agilent Technologies, Agilent Q-tof 6530) assay. Alternatively, 1 μM ERα wild-type or ERα Y537S mutant-type protein and 3 μM compound were added to a buffer solution containing 50 mM Tris-HCl, pH7.5, 150 mM NaCl, 1 mM TCEP and 5% glycerol and mixed well. The solution was incubated at 37° C. for 15 minutes, followed by high-resolution mass spectrometry assay. In the mass spectrometry assay results, the peak whose molecular weight is the sum of the molecular weight of the protein and compound is the product of covalent modification. The percentage of covalent modification is obtained by calculating the ratio of […] to total protein.

[2] = biological target: estrogen receptor ERα Y537S mutant-type (Homo sapiens (Human), UniProt P03372, Y537S); assay: Covalent modification of ERα Y537S mutant-type LBD by high-resolution mass spectrometry; type: binding; conditions: after 24 hours; 2 μM protein, 10 μM compound, 4° C.
Procedure: as §1

Chain of estrogen receptor ERα Y537S mutant-type (P03372 296-554 Y537S): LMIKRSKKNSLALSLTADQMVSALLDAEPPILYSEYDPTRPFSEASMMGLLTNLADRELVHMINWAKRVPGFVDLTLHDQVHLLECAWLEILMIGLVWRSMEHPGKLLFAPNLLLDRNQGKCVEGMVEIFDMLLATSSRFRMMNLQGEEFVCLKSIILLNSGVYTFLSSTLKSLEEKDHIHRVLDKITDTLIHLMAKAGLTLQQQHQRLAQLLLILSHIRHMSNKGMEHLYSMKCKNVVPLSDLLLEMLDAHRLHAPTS
Chain of estrogen receptor ERα wild-type (P03372 296-554): as the sequence (P03372 296-554 Y537S) above, with S242Y counted along it

SMILES	IC50 (MCF7 ERαY537S)	Emax (MCF7 ERαY537S)	Covalent modification effect on the estrogen receptor ERα wild-type [1]	Covalent modification effect on the estrogen receptor ERα Y537S mutant-type [2]
O=C(/C=C/CNC1(COc2ccc(/C(=C(/CC(F)(F)F)c3ccccc3)c3ccc4[nH]nc(F)c4c3)cn2)CC1)N1CCOCC1 [Example 1, (E)-1-Morpholino-4-((1-(((5-((Z)-4,4,4-trifluoro-1-(3-fluoro-1H-indazol-5-yl)-2-phenylbut-1-en-1-yl)pyridin-2-yl)oxy)methyl)cyclopropyl)amino)but-2-en-1-one]	3 nM	100%	97%	97%
CN(C)C(=O)/C=C/CN1CCC[C@@H](Oc2ccc(/C(=C(/CC(F)(F)F)c3ccccc3)c3ccc4[nH]nc(F)c4c3)cn2)C1 [Example 14, (E)-N,N-Dimethyl-4-((R)-3-((5-((Z)-4,4,4-trifluoro-1-(3-fluoro-1H-indazol-5-yl)-2-phenylbut-1-en-1-yl)pyridin-2-yl)oxy)piperidin-1-yl)but-2-enamide]	6 nM	97%	93%	94%
O=C(/C=C/CN1CCC[C@@H](Oc2ccc(/C(=C(/CC(F)(F)F)c3ccccc3)c3ccc4[nH]nc(F)c4c3)cn2)C1)N1CCCC1 [Example 15, (E)-1-(Pyrrolidin-1-yl)-4-((R)-3-((5-((Z)-4,4,4-trifluoro-1-(3-fluoro-1H-indazol-5-yl)-2-phenylbut-1-en-1-yl)pyridin-2-yl)oxy)piperidin-1-yl)but-2-en-1-one]	2 nM	102%	95%	96%
CN(C)C(=O)/C=C/CNC1(COc2ccc(/C(=C(/CC(F)(F)F)c3ccccc3)c3ccc4[nH]nc(F)c4c3)cn2)CC1 [Example 39, (E)-N,N-Dimethyl-4-((1-(((5-((Z)-4,4,4-trifluoro-1-(3-fluoro-1H-indazol-5-yl)-2-phenylbut-1-en-1-yl)pyridin-2-yl)oxy)methyl)cyclopropyl)amino)but-2-enamide]	1 nM	112%	97%	98%
O=C(/C=C/CNC1(COc2ccc(/C(=C(/CC(F)(F)F)c3ccccc3)c3ccc4[nH]nc(F)c4c3)cn2)CC1)N1CC(O)C1 [Example 40, (E)-1-(3-Hydroxyazetidin-1-yl)-4-((1-(((5-((Z)-4,4,4-trifluoro-1-(3-fluoro-1H-indazol-5-yl)-2-phenylbut-1-en-1-yl)pyridin-2-yl)oxy)methyl)cyclopropyl)amino)but-2-en-1-one]	0.5 nM	112%	96%	98%
O=C(/C=C/CNC1(COc2ccc(/C(=C(/CC(F)(F)F)c3ccccc3)c3ccc4[nH]nc(F)c4c3)cn2)CC1)N1CC[C@H](O)C1 [Example 41, (E)-1-((S)-3-Hydroxypyrrolidin-1-yl)-4-((1-(((5-((Z)-4,4,4-trifluoro-1-(3-fluoro-1H-indazol-5-yl)-2-phenylbut-1-en-1-yl)pyridin-2-yl)oxy)methyl)cyclopropyl)amino)but-2-en-1-one]	0.6 nM	111%	93%	95%
O=C(/C=C/CNC1(COc2ccc(/C(=C(/CC(F)(F)F)c3ccccc3)c3ccc4[nH]nc(F)c4c3)cn2)CC1)N1CCO[C@@H](CO)C1 [Example 42, (E)-1-((R)-2-(Hydroxymethyl)morpholino)-4-((1-(((5-((Z)-4,4,4-trifluoro-1-(3-fluoro-1H-indazol-5-yl)-2-phenylbut-1-en-1-yl)pyridin-2-yl)oxy)methyl)cyclopropyl)amino)but-2-en-1-one]	0.2 nM	107%	–	97%

Reference: patent US12325696B2, “Indazole derivative, preparation method therefor, and pharmaceutical application thereof” (JIANGSU HENGRUI MEDICINE CO., LTD., priority 2019, dated 2025)
